Measured values as given in patent US7704995B2 (Exelixis, Inc., priority 2003, dated 2010).
Like-named read-outs stand apart in the source and are kept apart here.

Target: T1, Chk1 (Homo sapiens, UniProt O14757)
T1 construct: purchased Upstate Biotechnology
T1 sequence (O14757 1-476): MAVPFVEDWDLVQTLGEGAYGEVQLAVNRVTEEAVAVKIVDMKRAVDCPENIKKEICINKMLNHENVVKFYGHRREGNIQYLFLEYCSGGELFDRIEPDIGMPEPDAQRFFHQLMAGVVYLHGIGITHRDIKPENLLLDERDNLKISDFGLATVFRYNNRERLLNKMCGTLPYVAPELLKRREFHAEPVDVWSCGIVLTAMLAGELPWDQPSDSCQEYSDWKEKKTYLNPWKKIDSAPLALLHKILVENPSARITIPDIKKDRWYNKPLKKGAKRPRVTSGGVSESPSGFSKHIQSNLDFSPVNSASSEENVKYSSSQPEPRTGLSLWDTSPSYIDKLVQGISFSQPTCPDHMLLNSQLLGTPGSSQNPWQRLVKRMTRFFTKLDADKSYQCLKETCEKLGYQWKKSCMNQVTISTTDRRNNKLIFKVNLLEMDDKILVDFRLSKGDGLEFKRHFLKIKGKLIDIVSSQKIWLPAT
Assay: Chk1 kinase assay: incorporation of γ-33P ATP into immobilized myelin basic protein
Format: biochemical
Conditions: read-out: Chk1 IC50
Procedure, shortened: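 Incorporation of γ-33P into myelin basic protein coated on plates was scintillation-counted after 1 h at room temperature, duplicate points. Unlabeled ATP was 10 μM with 10 nM Chk1, 30 μM with 20 nM Chk2; buffer Hepes pH 7.6, MgCl2, DTT, 1% DMSO. Output IC50, optionally converted to Ki.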

[1] = Table 11, Chk1 only, class symbols A-D

Row | Compound | IC50 [nM] | IC50 (Table 11, Chk1 only) [nM] | other results
1 | CNC(=O)c1nc(-c2cncc(C(=O)NCc3ccccc3)c2)cnc1N [Example 349, 3-amino-N-methyl-6-(5-{[(phenylmethyl)amino]carbonyl}pyridin-3-yl)pyrazine-2-carboxamide] | 50 to 1000 | – | –
2 | CNC(=O)c1nc(-c2cccc(C(=O)NCc3ccc(S(N)(=O)=O)cc3)c2)cnc1N [Example 237, 3-amino-6-{3-[({[4-(aminosulfonyl)phenyl]methyl}amino)carbonyl]phenyl}-N-methylpyrazine-2-carboxamide] | 50 to 1000 | – | –
3 | CNC(=O)c1nc(-c2cccc(NC(=O)Nc3cccc(-c4cnc(N)c(C(=O)NC)n4)c3)c2)cnc1N [Example 91, 6,6′-[(oxomethanediyl)bis(iminobenzene-3,1-diyl)]bis(3-amino-N-methylpyrazine-2-carboxamide)] | < 50 | – | –
4 | CNC(=O)c1nc(-c2cccc(C(=O)NCc3c(F)cccc3Cl)c2)cnc1N [Example 171, 3-amino-6-[3-({[(2-chloro-6-fluorophenyl)methyl]amino}carbonyl)phenyl]-N-methylpyrazine-2-carboxamide] | 50 to 1000 | – | –
5 | CNC(=O)c1nc(-c2cccc(CN[C@H]3CCc4ccccc4C3)c2)cnc1N [Example 454, 3-amino-N-methyl-6-(3-{[(2S)-1,2,3,4-tetrahydronaphthalen-2-ylamino]methyl}phenyl)pyrazine-2-carboxamide] | – | < 50 | –
6 | CNC(=O)c1nc(-c2cccc(C(=O)NCc3cccc(OCCN4CCOCC4)c3)c2)cnc1N [Example 342, 3-amino-N-methyl-6-(3-{[({3-[(2-morpholin-4-ylethyl)oxy]phenyl}methyl)amino]carbonyl}phenyl)pyrazine-2-carboxamide] | 50 to 1000 | – | –
7 | CNC(=O)c1nc(-c2cccc(CN[C@H]3CCC[C@@H]3OCc3ccccc3)c2)cnc1N [Example 499, 3-amino-N-methyl-6-{3-[({(1S,2S)-2-[(phenylmethyl)oxy]cyclopentyl}amino)methyl]phenyl}pyrazine-2-carboxamide] | – | 50 to 1000 | –
8 | CNC(=O)c1nc(-c2cccc(CN[C@@H]3CCC[C@H]3OCc3ccccc3)c2)cnc1N [Example 506, 3-amino-N-methyl-6-{3-[({(1R,2R)-2-[(phenylmethyl)oxy]cyclopentyl}amino)methyl]phenyl}pyrazine-2-carboxamide] | – | 50 to 1000 | –
9 | CNC(=O)c1nc(-c2cccc(CNC(=O)CSc3ccc(N)cc3)c2)cnc1N [Example 347, 3-amino-6-{3-[({[(4-aminophenyl)thio]acetyl}amino)methyl]phenyl}-N-methylpyrazine-2-carboxamide] | 50 to 1000 | – | –
10 | Nc1ncc(-c2cccc(C(=O)NCc3cc(F)cc(F)c3)c2)nc1C(=O)N[C@H]1CCCNC1 [Example 868, 3-amino-6-[3-({[(3,5-difluorophenyl)methyl]amino}carbonyl)phenyl]-N-[(3S)-piperidin-3-yl]pyrazine-2-carboxamide] | – | – | IC50 [1]: < 50 nM
11 | CN1CC[C@H](NC(=O)c2nc(-c3cccc(C(=O)N[C@@H]4c5ccccc5C[C@@H]4O)c3)cnc2N)C1 [Example 805, 3-amino-6-[3-({[(1R,2S)-2-hydroxy-2,3-dihydro-1H-inden-1-yl]amino}carbonyl)phenyl]-N-[(3S)-1-methylpyrrolidin-3-yl]pyrazine-2-carboxamide] | – | – | IC50 [1]: 50 to 1000 nM
12 | Nc1ncc(-c2cccc(CN[C@H]3CCc4ccccc43)c2)nc1C(=O)NCC(F)(F)F [Example 537, 3-amino-6-(3-{[(1S)-2,3-dihydro-1H-inden-1-ylamino]methyl}phenyl)-N-(2,2,2-trifluoroethyl)pyrazine-2-carboxamide] | – | 1000 to 10000 | –
13 | NC(=O)c1nc(-c2cccc(F)c2)cnc1N [Example 19, 3-amino-6-(3-fluorophenyl)pyrazine-2-carboxamide] | ≥ 10000 | – | –
14 | Nc1ncc(-c2cccc(C(=O)NCc3ccccc3)c2)nc1C(=O)c1ccc(Cl)c(F)c1 [Example 587, 3-{5-amino-6-[(4-chloro-3-fluorophenyl)carbonyl]pyrazin-2-yl}-N-(phenylmethyl)benzamide] | – | ≥ 10000 | –
15 | CNC(=O)c1nc(-c2cccc(C(=O)N(Cc3ccccc3)Cc3ccccc3)c2)cnc1N [Example 114, 3-amino-6-(3-{[bis(phenylmethyl)amino]carbonyl}phenyl)-N-methylpyrazine-2-carboxamide] | 1000 to 10000 | – | –
16 | Nc1ncc(-c2cccc(CO)c2)nc1-c1nnc[nH]1 [Example 535, {3-[5-amino-6-(4H-1,2,4-triazol-3-yl)pyrazin-2-yl]phenyl}methanol] | – | 1000 to 10000 | –
17 | Nc1ncc(-c2cccc(C(=O)NCc3cccc(-c4ccccc4)c3)c2)nc1C(=O)N[C@H]1CCCNC1 [Example 1034, 3-amino-6-(3-{[(biphenyl-3-ylmethyl)amino]carbonyl}phenyl)-N-[(3S)-piperidin-3-yl]pyrazine-2-carboxamide] | – | – | IC50 [1]: < 50 nM
18 | Nc1ncc(-c2cccc(C(=O)NCc3c(F)ccc(F)c3Cl)c2)nc1C(=O)N[C@H]1CCCNC1 [Example 1014, 3-amino-6-[3-({[(2-chloro-3,6-difluorophenyl)methyl]amino}carbonyl)phenyl]-N-[(3S)-piperidin-3-yl]pyrazine-2-carboxamide] | – | – | IC50 [1]: < 50 nM
19 | CNC(=O)c1nc(-c2cccc(C(=O)NCc3c(F)ccc(Cl)c3F)c2)cnc1N [Example 282, 3-amino-6-[3-({[(3-chloro-2,6-difluorophenyl)methyl]amino}carbonyl)phenyl]-N-methylpyrazine-2-carboxamide] | 50 to 1000 | – | –
20 | Nc1ncc(-c2cccc(NC(=O)Cc3ccc(Cl)cc3Cl)c2)nc1C(=O)N[C@H]1CCCNC1 [Example 890, 3-amino-6-(3-{[(2,4-dichlorophenyl)acetyl]amino}phenyl)-N-[(3S)-piperidin-3-yl]pyrazine-2-carboxamide] | – | – | IC50 [1]: < 50 nM
21 | Nc1ncc(-c2cccc(O)c2)nc1C(=O)N[C@H]1CCCNC1 [Example 840, 3-amino-6-(3-hydroxyphenyl)-N-[(3S)-piperidin-3-yl]pyrazine-2-carboxamide] | – | – | IC50 [1]: < 50 nM
22 | CNC(=O)c1nc(-c2ccc(C(=O)NCc3ccc(Cl)cc3Cl)cc2)cnc1N [Example 152, 3-amino-6-[4-({[(2,4-dichlorophenyl)methyl]amino}carbonyl)phenyl]-N-methylpyrazine-2-carboxamide] | 50 to 1000 | – | –
23 | CN1CCN(C(=O)c2nc(-c3cccc(C(=O)NCc4ccccc4)c3)cnc2N)CC1 [Example 573, 3-{5-amino-6-[(4-methylpiperazin-1-yl)carbonyl]pyrazin-2-yl}-N-(phenylmethyl)benzamide] | – | ≥ 10000 | –

Now from value to compound, other results behind:

Row | IC50 [nM] | IC50 (Table 11, Chk1 only) [nM] | Compound | other results
24 | – | 50 to 1000 | C/C(=N\N(C)C)c1nc(-c2cccc(C(=O)NCc3ccccc3)c2)cnc1N [Example 629, 3-{5-amino-6-[(1E)-N,N-dimethylethanehydrazonoyl]pyrazin-2-yl}-N-(phenylmethyl)benzamide] | –
25 | – | 50 to 1000 | CC(C)(C)OC(=O)N1CCCC(NC(=O)c2nc(-c3cccc(C(=O)N[C@@H]4c5ccccc5C[C@@H]4O)c3)cnc2N)CC1 (stereo partly drawn) [Example 781, 1,1-dimethylethyl 4-[({3-amino-6-[3-({[(1R,2S)-2-hydroxy-2,3-dihydro-1H-inden-1-yl]amino}carbonyl)phenyl]pyrazin-2-yl}carbonyl)amino]azepane-1-carboxylate] | –
26 | – | ≥ 10000 | Nc1ncc(-c2cccc(C(=O)NCc3ccccc3)c2)nc1C(=O)NCCCNC(=O)c1ccc(C(F)(F)F)nc1 [Example 652, 3-amino-6-(3-{[(phenylmethyl)amino]carbonyl}phenyl)-N-[3-({[6-(trifluoromethyl)pyridin-3-yl]carbonyl}amino)propyl]pyrazine-2-carboxamide] | –
27 | – | ≥ 10000 | CCOC(=O)CN/N=C(\C)c1nc(-c2cccc(C(=O)NCc3ccccc3)c2)cnc1N [Example 628, ethyl ((2E)-2-{1-[3-amino-6-(3-{[(phenylmethyl)amino]carbonyl}phenyl)pyrazin-2-yl]ethylidene}hydrazino)acetate] | –
28 | – | < 50 | Nc1ncc(-c2cccc(C(=O)N[C@@H]3c4ccccc4C[C@@H]3O)c2)nc1C(=O)NC[C@@H]1CCNC1 [Example 780, 3-amino-6-[3-({[(1R,2S)-2-hydroxy-2,3-dihydro-1H-inden-1-yl]amino}carbonyl)phenyl]-N-[(3R)-pyrrolidin-3-ylmethyl]pyrazine-2-carboxamide] | –
29 | – | ≥ 10000 | COc1ccc(C(=O)c2nc(-c3cccc(C(=O)NCc4ccccc4)c3)cnc2N)c(OC)c1 [Example 588, 3-(5-amino-6-{[2,4-bis(methyloxy)phenyl]carbonyl}pyrazin-2-yl)-N-(phenylmethyl)benzamide] | –
30 | – | 1000 to 10000 | Nc1ncc(-c2cccc(C(=O)N[C@H]3CCc4ccccc43)c2)nc1C(=O)N[C@H]1CCN(C(=O)c2ccco2)C1 [Example 646, 3-amino-6-(3-{[(1S)-2,3-dihydro-1H-inden-1-ylamino]carbonyl}phenyl)-N-[(3S)-1-(furan-2-ylcarbonyl)pyrrolidin-3-yl]pyrazine-2-carboxamide] | –
31 | – | ≥ 10000 | Cc1nc(-c2nc(-c3cccc(C(=O)N[C@H]4CCc5ccccc54)c3)cnc2N)nn1C [Example 799, 3-[5-amino-6-(1,5-dimethyl-1H-1,2,4-triazol-3-yl)pyrazin-2-yl]-N-[(1S)-2,3-dihydro-1H-inden-1-yl]benzamide] | –
